From patent US12377086B2, “Therapeutic methods, combinations and kits” (priority 2021, dated 2025) come the findings set out here.

One data set concerns HEK293 cells. The data set is described as follows: Human cell cytotoxicity assay (MTT). The settings on record: 72 h.
The target in data set [1] is T1, VIM-2 (Pseudomonas aeruginosa, UniProt Q5U7L7). The data set is described as follows: biochemical. The settings on record: for VIM-2 percentage inhibition: 50 μM compound, 5 nM MBL, 10 μM nitrocefin, 30 mins. Here is the method: (§1) The pET24a-VIM-2 plasmid was transformed into competent BL21 (DE3) E. coli cells. The cells were plated onto an LB-agar plate with kanamycin (25 μg/mL) and incubated overnight at 37° C. A single colony was used to inoculate 50 mL of LB, containing 25 μg/mL kanamycin, and the culture was shaken overnight at 37° C. From the overnight culture, 10 mL were transferred to 4×IL LB medium containing 25 μg/mL kanamycin. The cultures were grown at 37° C. until an optical density (OD600 nm) of 0.6-0.8 was reached, at which point protein production was induced with IPTG (0.5 mM) and ZnCl2 (100 μM). The temperature was reduced to 20° C., and the cells were shaken for an additional 18 h. The cultures were harvested by centrifugation (8 Kxg) for 10 min at 4° C. The resulting pellets were re-suspended in 25 mL of 50 mM HEPES, pH 7.5, containing 500 mM NaCl (buffer B). The cells were lysed with three passes through a French Press. The lysate was centrifuged (15 Kxg) for 30 min at 4° C. The supernatant was dialyzed against 2 L of 50 mM HEPES, pH 7.5 (buffer A), for 4 h. Buffer A was used to equilibrate a 25 mL Q-Sepharose column using an FPLC. The sample was loaded onto the column, and proteins were eluted with a linear gradient 0-500 mM NaCl with buffer B. Fractions containing VIM-2, determined by SDS-PAGE, were pooled and concentrated to 2-3 mL in an Amicon ultraconcentrator equipped YM-10 membrane. Further purification was conducted with a Sephacryl S-200 gel filtration column using 50 mM HEPES, pH 7.5, containing 150 mM NaCl. Fractions containing pure VIM-2 were pooled, and metal analysis was performed.
(§2) To identify potential MBL inhibitors, the relative change in the formation of hydrolyzed nitrocefin between treated and untreated MBL was determined as percentage inhibition. 5 nM of each BML was pre-incubated for 10 mins with 50 μM of each compound, followed by the addition of 10 μM nitrocefin.
(§3) Each MBL was incubated with 50 μM of each compound, followed by the addition of nitrocefin. The relative change in absorbance is reported as percentage inhibition.

The target of data set [2] is T1, VIM-2. The data set is described as follows: biochemical. The settings on record: for IC50: 5 nM MBL, 10 μM nitrocefin, read-out: VIM-2 IC50; for Ki: nitrocefin substrate, competitive-inhibition fit, read-out: VIM-2 Ki. Here is the method: as §1, with “Further purification was conducted with a Sephacryl S-200 gel filtration column using 50 mM HEPES, pH 7.5, containing 150 mM NaCl.” left out
The enzyme inhibition constant (Ki) was derived from initial-velocity measurements by nonlinear regression using competitive-inhibition enzyme kinetics using Graphpad Prism 6.

For data set [3], the system named is VIM-2 expressing E. coli. The format is cell-based, Escherichia coli. Here is the method:
(§4) The optical density of the cell cultured was monitored at 600 nm (OD600 nm). The cells were cultured on 0.8 g/100 ml nutrient agar plate at pH 7.0 and 37° C. […] An overnight culture of the bacterial strain was sub-cultured to 0.06 OD600 nm into the NB medium and was then seeded at max 200 μl into the wells of a 96 well microtiter plate. Samples were then incubated at 37° C. and shaken at 200 rpm for 18 h. The absorbance was measured on an ELIZA plate reader and analyzed with the Gen5™ software suite (version 1.08).
The bacterial culture was prepared as described above. The diluted subculture bacteria in NB medium were set up to a final volume of 200 μl in clear flat-bottom 96-well plates containing ten different concentrations of each tested compound ranging from 0.001 μM to 50 μM. The mixing of the bacterial culture plate were then incubated in a 37° C. […] shaken incubator at 200 rpm for 18 h before measuring their optical density at 600 nm.

Data set [4] can be described thus: in vitro. Conditions: human, HEK293 cells.
Method: (§5) Human embryonic kidney cell line (HEK293) were grown in 100 mm cell culture petri dishes at 37° C. with 5% CO2 in Dulbecco's Modified Eagle's Medium high glucose medium containing 1% penicillin/streptomycin (Sigma-Aldrich, St. Louis, MO) and supplemented with 5% of fetal bovine serum (Thermo Fisher Scientific Gibco®). Cells under 10 passages and the 80% of monitored cell petri dish were used for experiment.
(§6) Cytotoxicity of tested compounds were estimated using the MTT method. Cell viability were measured by counting viable cells by using the 3 (4,5dimethylthiazol-2-yl)-2,5-diphenyltetrazolium bromide (MTT) (Sigma-Aldrich, St. Louis, MO) colorimetric dye-reduction assay. […] Following 24 h incubation and attachment, the cells were incubated for 72 h with different concentrations of inhibitors (0.01˜100 μM) in culture media without FBS. The Control cells were supplemented only with a medium without containing FBS. All samples in 96 well plate were incubated at 37° C. at an atmosphere of 5% CO2. […] The absorbance was measured using a micro-plate reader at wavelength 590 nm. The CC50 were obtained based on a comparison with untreated cells by fitting the data to a sigmoidal dose-response equation using Graphpad Prism 6.
In the next data set the target is NDM-1 (Klebsiella pneumoniae, UniProt C7C422). Nature of the data set: biochemical. Conditions: read-out: NDM-1 percentage inhibition, 50 μM compound, 5 nM MBL, 10 μM nitrocefin, 30 mins. Here is the method: BL21 (DE3) E. coli cells containing the pET26b-ndm-1 plasmid were used to inoculate a 50 mL LB starter culture containing kanamycin (25 μg/mL). The culture was grown overnight at 37° C. The starter culture was then used to inoculate 4×1 L LB containing kanamycin (25 μg/mL). These flasks were incubated at 37° C. until culture reached an optical density of (OD600) of 0.6 to 0.8. The incubator was then set to 22° C. and the cultures were shaken for 30 min to allow them to cool. ZnCl2 ([…]) and IPTG (0.5 mM) were then added to the cultures and they were grown for 18 h at 22° C. The cells were then harvested using centrifugation (8000×g) for 10 min. The pellet was resuspended with 25 mL 50 mM HEPES, pH 7.5 containing 500 mM NaCl (Buffer B). Lysis was performed with three passes through a French Press. The lysate was centrifuged for 30 min (15,000×g) at 4° C. The supernatant was then dialyzed versus 2 L 50 mM HEPES, pH 7.5 (Buffer C) for 4 h. An FPLC was used to equilibrate a Q-Sepharose column using buffer C using a flowrate of 2.0 mL/min for 1.5 h. The lysate was then loaded onto the column and eluted with a linear NaCl gradient from 0-500 mM. Fractions containing NDM-1 were identified with SDS-PAGE. These fractions were pooled and concentrated to 2-3 mL in an Amicon ultracentrifugation concentrating unit with a YM-10 membrane. The resulting protein mixture was then loaded onto a Sephacryl S-200 gel filtration column run with 50 mM HEPES, pH 7.5 containing 150 mM NaCl (Buffer A). SDS-PAGE was used to identify fractions containing pure protein.
NDM-1, sequence (C7C422 whole entry, looked up, species assumed): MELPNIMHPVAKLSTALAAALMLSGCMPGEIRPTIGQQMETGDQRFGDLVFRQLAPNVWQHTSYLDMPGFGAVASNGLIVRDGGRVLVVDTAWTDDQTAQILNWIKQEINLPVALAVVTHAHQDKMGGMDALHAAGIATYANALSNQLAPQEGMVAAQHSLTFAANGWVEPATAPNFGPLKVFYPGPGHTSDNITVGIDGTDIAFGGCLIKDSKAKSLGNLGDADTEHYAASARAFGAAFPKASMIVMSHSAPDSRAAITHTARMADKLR
as §2, §3

Data set [5] has as its system VIM-2 expressing E. coli. The format is cell-based, Escherichia coli. The settings on record: VIM-2 expressing E. coli, compound with amoxicillin. Here is the method:
as §4
• The data are reported as relative percentage growth compared to untreated cells.

A short description of data set [6]: in vitro. Conditions: human, microsomes, pH 7.4. Here is the method:
The in vitro microsomal stability assay was conducted in triplicate in human liver microsomal systems. In a typical incubation, the test compound was spiked into the reaction mixture containing 0.5 mg/mL of liver microsomal protein and 1 mM of NADPH in 0.1 M potassium phosphate buffer (pH 7.4) at 37° C. At various time points, 1 volume of reaction aliquot was taken and quenched with 3 volumes of acetonitrile. The samples were then vortexed and centrifuged at 14,000 rpm for 3 min at 4° C. The supernatants were collected and analyzed by LC-MS/MS to determine the in vitro metabolic half-life (t1/2) and intrinsic clearance (CLint).

Data set [7] can be described thus: in vitro. The settings on record: human, plasma. Here is the method: The plasma stability assay was performed in triplicate by incubating the test compound in normal human plasma at 37° C. At 0, 1, 3, 6, and 24 h, aliquots of the plasma mixture were taken and quenched with 3 volumes of acetonitrile. The samples were then vortexed and centrifuged at 14,000 rpm for 3 min at 4° C. The supernatants were collected and analyzed by LC-MS/MS to determine the remaining percentage at various time points and to calculate plasma half-life (t1/2).

The target of data set [8] is T1, VIM-2. The settings on record: after incubation with inhibitor and dialysis. Here is the method: VIM-2 was diluted to 6 μM with 50 mM HEPES, pH 7.5, containing 150 mM NaCl. The diluted protein solution was used to make several 5 mL aliquots. […] One aliquot contained one molar equivalent of inhibitor (6 μM), with respect to enzyme concentration, and the second aliquot contained two molar equivalents (12 μM). One aliquot contained no inhibitor. Each aliquot was then incubated for 4 h at 4° C. Following incubation, each aliquot was dialyzed versus 500 mL of 50 mM HEPES, pH 7.5, for 4 h at 4° C. The aliquots were analyzed using ICP-AES, as previously described REF. The emission wavelengths used were 213.856, 238.892, 259.940, 231.604, and 324.754 nm for Zn, Co, Fe, Ni, and Cu, respectively.
To further address the mode of action of 8-hydroxyquinolines, equilibrium dialysis experiments were conducted. […] EDTA, a well-known metal scavenger, inhibits all MBLs through a chelation mechanism (Bush, K.; Jacoby, G. A. Updated Functional Classification of beta-Lactamases. Antimicrobial Agents and Chemotherapy 2010, 54, 969-976).

Where [9] appears, read: in the presence of 50 μM amoxicillin.

Read-outs that look alike come from different tables or passages of the source.

Method for HEK293 cells: as §5, §6

`O=[N+]([O-])c1ccc(O)c2ncccc12` [Compound 41] showed a CC50 with HEK293 cells of 7800 nM. The VIM-2 percentage inhibition on VIM-2 [1] was 86%. Further, on VIM-2 [2], the IC50 came to 670 nM and the Ki was 250 nM. In the data set on VIM-2 expressing E. coli [3] (50 uM amoxicillin), this molecule registered an EC50 of 70 nM. Also, the EC50 in the data set with VIM-2 expressing E. coli [3] (setting [9]) is 70 nM.

`O=C(O)c1ccc2cccnc2c1O` [Compound 45, 8-hydroxyquinoline-7-carboxylic acid] showed a CC50 at 72 h in the data set “in vitro [4]” greater than 100000 nM. In addition, the inhibition at 50 µM at NDM-1 stood at 99%; on VIM-2 [1] (read-out: VIM-2 percentage inhibition, 50 μM compound, 5 nM MBL, 10 μM nitrocefin, 30 mins), 94%. Moreover, the synergistic growth inhibition result in the data set on VIM-2 expressing E. coli [5] is recorded as “over 96%”. For the same molecule, the half-life in “in vitro [6]” was greater than 1 h; in “in vitro [7]”, greater than 24 h. Moreover, on VIM-2 [8], the “metal content of VIM-2 / removal of Zn(II) from the active site” value is reported as “do not inhibit VIM-2 by removal of Zn(II)”.

In the case of `Oc1c(I)cc(Cl)c2cccnc12` [Compound 48, Clioquinol, reference compound], in the data set on VIM-2 expressing E. coli [5], the synergistic growth inhibition entry is on record as “over 96%”. Besides, the CC50 in the data set with HEK293 cells worked out at 18300 nM. Also, the VIM-2 percentage inhibition at VIM-2 [1] is on record as 93%. On VIM-2 [2], the IC50 is 5100 nM and the Ki is 1100 nM. Also, at VIM-2 [8], the “metal content of VIM-2 / removal of Zn(II) from the active site” value was “do not inhibit VIM-2 by removal of Zn(II)”. Moreover, the EC50 in the data set on VIM-2 expressing E. coli [3] (setting [9]) worked out at 940 nM.
